According to paper PMC11945475, “Nasal Administration of a Nanoemulsion Based on Methyl Ferulate and Eugenol Encapsulated in Chitosan Oleate: Uptake Studies in the Central Nervous System” (Pharmaceutics, 2025):
Where two headings read alike, the source gives them in different places.

Key:
[1] = Intravenous administration of Fer-Me to rats (bloodstream and CSF pharmacokinetics); format: in vivo, rat; details: rat, in vivo, iv
Description: Charles River laboratories, Calco, Italy) bloodstream and CSF. […] The sample size (4 rats/group) has been chosen based on our previous studies. The experimental procedures were approved by the Italian Ministry of Health and were performed in accordance with the European Communities Council Directive of September 2010 (2010/63/EU). According to the ARRIVE guidelines, all possible efforts were made to minimize animal pain and discomfort and to reduce the number of experimental subjects. Fer-Me solution (2.5 mg/mL final concentration, 15% v/v EtOH content) was prepared by first dissolving Fer-Me in EtOH and then adding this latter solution to a saline solution (0.9% NaCl). […] The aqueous phase was then subjected to a double extraction with 1 mL of H2O-saturated ethyl acetate. […] Data were acquired and processed through CLASS-VP Software; version 7.2.1 (Shimadzu Italia, Milan, Italy). The mobile phase was eluted under isocratic conditions (0.8 mL/min) and was constituted by a mixture of acetic acid in H2O (0.4% v/v) and MeOH, whose ratio was 40:60 (v/v). The UV-Vis detector was set at 320 nm for the detection of Fer-Me, its hydrolysis product Fer, and Caf-Me, which was utilized as an internal standard during blood sample extraction. […] The average recoveries were approximately 40% for Fer and 58% for Fer-Me. For this reason, the concentrations of these compounds were determined by their peak area ratio with respect to the internal standard (Caf-Me). […] Fer-Me in vivo half-life (t1/2) in the rats' bloodstream was determined using nonlinear regression (exponential decay) of concentration values quantified at appropriate time intervals after infusion, further validated by applying linear regression to the semi-logarithmic plot.

[2] = cited from earlier work
several cell lines = details: cited from earlier work

COC(=O)/C=C/c1ccc(O)c(OC)c1 [Fer-Me, methyl ferulate]
Tmax in CSF [1]: 20 min
kinetic elimination constant (kel) ([1]; 10 mg/kg): 0.069 ± 0.003 min⁻¹

C=CCc1ccc(O)c(OC)c1 [eugenol]
permanence in the rat CSF ([2]; in vivo): 50 min
AUC in CSF ([2]; rat, eugenol 20 mg/kg i.v.): 56.1 ± 4.2 µg·min/mL
Tmax in CSF ([2]; rat, eugenol 20 mg/kg i.v.): 10 min
t1/2 in the bloodstream ([2]; rat, in vivo, iv, 20 mg/kg): about 20 min
concentration known to induce cytotoxicity (several cell lines): 5000 µM
